Experimental data as given in publication PMC6618152, “Abscisic acid is a substrate of the ABC transporter encoded by the durable wheat disease resistance gene Lr34” (The New Phytologist, 2019).

Assays:
LR34res [1] = target: T1, LR34res (Triticum aestivum, UniProt A0A9R1MFS8); assay: inhibition of 3H-ABA uptake in yeast YMM12; format: cell-based; conditions: 20 min preincubation, then 10 min with labelled ABA; general ABC transporter inhibitor; allele in this panel not stated, taken as LR34res
T1 construct: gene CFC21_107174; full-length cDNA from p6U:cLr34res, C-terminal HA tag, in pNEV-N; expressed in Saccharomyces cerevisiae W303 and YMM12; predicted c; 160 kDa
T1 sequence (A0A9R1MFS8 1-1401): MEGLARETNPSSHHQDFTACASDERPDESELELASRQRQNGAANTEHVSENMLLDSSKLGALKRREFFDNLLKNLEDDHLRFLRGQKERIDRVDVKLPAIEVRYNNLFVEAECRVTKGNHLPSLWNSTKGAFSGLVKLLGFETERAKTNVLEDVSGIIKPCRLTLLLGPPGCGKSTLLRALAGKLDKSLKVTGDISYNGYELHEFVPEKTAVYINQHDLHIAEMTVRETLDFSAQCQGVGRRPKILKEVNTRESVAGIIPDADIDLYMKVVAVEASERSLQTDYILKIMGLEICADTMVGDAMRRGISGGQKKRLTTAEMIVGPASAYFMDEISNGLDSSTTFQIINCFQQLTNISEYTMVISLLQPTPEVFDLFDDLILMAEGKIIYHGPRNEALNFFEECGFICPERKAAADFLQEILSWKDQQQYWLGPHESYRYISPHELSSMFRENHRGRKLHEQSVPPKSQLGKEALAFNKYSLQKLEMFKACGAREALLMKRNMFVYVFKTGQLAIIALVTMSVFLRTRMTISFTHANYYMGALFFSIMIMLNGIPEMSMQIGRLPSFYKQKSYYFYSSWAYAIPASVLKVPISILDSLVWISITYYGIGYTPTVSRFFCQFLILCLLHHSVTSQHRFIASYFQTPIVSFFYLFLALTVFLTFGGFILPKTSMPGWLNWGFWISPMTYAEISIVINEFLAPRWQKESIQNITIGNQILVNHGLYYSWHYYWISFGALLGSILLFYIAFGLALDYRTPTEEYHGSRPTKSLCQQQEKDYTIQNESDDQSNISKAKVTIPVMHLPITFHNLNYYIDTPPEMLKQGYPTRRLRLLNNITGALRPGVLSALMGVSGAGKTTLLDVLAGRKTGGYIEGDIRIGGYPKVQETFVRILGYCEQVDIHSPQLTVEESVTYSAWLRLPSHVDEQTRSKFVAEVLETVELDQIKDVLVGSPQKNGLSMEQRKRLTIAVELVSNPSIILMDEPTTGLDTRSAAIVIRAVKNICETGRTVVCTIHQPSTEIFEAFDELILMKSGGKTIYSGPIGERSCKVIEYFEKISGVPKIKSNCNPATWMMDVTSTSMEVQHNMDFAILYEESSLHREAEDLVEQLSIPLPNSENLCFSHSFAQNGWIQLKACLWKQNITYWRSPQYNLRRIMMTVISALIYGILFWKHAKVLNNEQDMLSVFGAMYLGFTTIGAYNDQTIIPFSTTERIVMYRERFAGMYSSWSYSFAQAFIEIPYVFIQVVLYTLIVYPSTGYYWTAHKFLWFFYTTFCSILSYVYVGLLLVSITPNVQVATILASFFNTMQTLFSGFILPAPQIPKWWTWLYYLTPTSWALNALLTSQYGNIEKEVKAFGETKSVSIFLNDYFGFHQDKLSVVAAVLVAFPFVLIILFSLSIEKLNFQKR

LR34res [2] = target: T1, LR34res; assay: competition of 3H-ABA uptake in LR34res-expressing yeast; format: cell-based; conditions: 50 nM labelled and unlabelled ABA mixture, 10 min, pH 6.3; competition for substrate binding suggested, not proven

Row | Compound | relative 3H-ABA accumulation (% of control) (LR34res [1]) | % reduction of 3H-ABA uptake at 3 μM (LR34res [2])
1 | COc1ccc(Cl)cc1C(=O)NCCc1ccc(S(=O)(=O)NC(=O)NC2CCCCC2)cc1 [glibenclamide] | The ABC transporter inhibitor glibenclamide | 
2 | C=C[C@](C)(O)CC[C@@H]1[C@@]2(C)CCCC(C)(C)[C@@H]2CC[C@@]1(C)O [sclareol] |  | ~ 40%
